Measurements: ChEMBL document CHEMBL5653631, “A Potent and Selective ULK1 Inhibitor Suppresses Autophagy and Sensitizes Cancer Cells to Nutrient Stress” (iScience, 2018)

What was measured:
[1] = molecular target: [Pyruvate dehydrogenase (acetyl-transferring)] kinase isozyme 4, mitochondrial (Homo sapiens) (UniProt Q16654); test: Inhibition of human recombinant PDHK4 at 40 nM related to control ULK1
[2] = molecular target: Glycogen synthase kinase-3 alpha (Homo sapiens) (UniProt P49840); test: Inhibition of human recombinant GSK3A at 40 nM related to control ULK1
[3] = molecular target: SRSF protein kinase 2 (Homo sapiens) (UniProt P78362); test: Inhibition of human recombinant SRPK2 at 40 nM related to control ULK1
[4] = molecular target: T1, Serine/threonine-protein kinase 17B (Homo sapiens) (UniProt O94768); test: Inhibition of human recombinant DRAK2 at 500 nM related to control ULK1
T1 sequence (whole entry): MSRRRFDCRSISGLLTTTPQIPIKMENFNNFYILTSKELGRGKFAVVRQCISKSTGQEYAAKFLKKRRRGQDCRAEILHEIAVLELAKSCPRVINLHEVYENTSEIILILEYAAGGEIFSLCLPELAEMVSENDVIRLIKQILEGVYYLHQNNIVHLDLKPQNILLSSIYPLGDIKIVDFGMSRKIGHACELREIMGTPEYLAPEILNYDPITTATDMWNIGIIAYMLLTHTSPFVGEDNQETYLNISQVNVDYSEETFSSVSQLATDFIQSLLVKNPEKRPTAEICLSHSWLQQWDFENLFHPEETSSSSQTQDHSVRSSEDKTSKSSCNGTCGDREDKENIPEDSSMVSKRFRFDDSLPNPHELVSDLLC

[5] = molecular target: Serine/threonine-protein kinase Nek6 (Homo sapiens) (UniProt Q9HC98); test: Inhibition of human recombinant NEK6 at 500 nM related to control ULK1
[6] = molecular target: Mitogen-activated protein kinase kinase kinase 20 (Homo sapiens) (UniProt Q9NYL2); test: Inhibition of human recombinant ZAK at 500 nM in presence of ATP by radiometric assay relative to control
[7] = molecular target: Serine/threonine-protein kinase 33 (Homo sapiens) (UniProt Q9BYT3); test: Inhibition of human recombinant STK33 at 500 nM related to control ULK1
[8] = molecular target: Serine/threonine-protein kinase 25 (Homo sapiens) (UniProt O00506); test: Inhibition of human recombinant YSK1 at 500 nM in presence of ATP by radiometric assay relative to control
[9] = molecular target: T2, Serine/threonine-protein kinase TAO1 (Homo sapiens) (UniProt Q7L7X3); test: Inhibition of human recombinant TAO1 at 500 nM in presence of ATP by radiometric assay relative to control
T2 sequence (whole entry): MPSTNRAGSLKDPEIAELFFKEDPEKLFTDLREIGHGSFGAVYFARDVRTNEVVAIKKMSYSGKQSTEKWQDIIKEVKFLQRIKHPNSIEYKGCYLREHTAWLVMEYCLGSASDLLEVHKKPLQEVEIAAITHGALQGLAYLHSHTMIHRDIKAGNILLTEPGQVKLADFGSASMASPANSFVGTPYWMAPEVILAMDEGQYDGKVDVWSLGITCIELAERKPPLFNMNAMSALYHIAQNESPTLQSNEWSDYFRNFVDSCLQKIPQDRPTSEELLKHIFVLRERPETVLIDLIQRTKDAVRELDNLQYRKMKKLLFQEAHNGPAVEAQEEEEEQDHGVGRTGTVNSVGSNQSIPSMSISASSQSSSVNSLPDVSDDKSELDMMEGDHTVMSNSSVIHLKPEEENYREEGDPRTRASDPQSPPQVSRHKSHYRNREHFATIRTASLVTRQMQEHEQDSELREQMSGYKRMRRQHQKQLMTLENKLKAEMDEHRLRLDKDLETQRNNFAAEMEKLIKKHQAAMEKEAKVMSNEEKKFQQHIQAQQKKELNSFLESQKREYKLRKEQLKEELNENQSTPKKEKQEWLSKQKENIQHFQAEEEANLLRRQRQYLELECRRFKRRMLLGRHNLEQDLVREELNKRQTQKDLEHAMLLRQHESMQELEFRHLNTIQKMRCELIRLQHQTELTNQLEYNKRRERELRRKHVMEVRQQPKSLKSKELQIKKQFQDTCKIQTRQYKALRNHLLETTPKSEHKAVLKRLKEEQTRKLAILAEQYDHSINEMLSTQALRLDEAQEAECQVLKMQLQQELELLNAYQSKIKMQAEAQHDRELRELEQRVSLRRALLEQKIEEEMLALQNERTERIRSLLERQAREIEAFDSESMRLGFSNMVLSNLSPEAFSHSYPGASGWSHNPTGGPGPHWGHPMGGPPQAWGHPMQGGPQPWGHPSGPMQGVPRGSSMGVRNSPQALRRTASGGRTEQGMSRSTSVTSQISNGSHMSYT

[10] = molecular target: MAP/microtubule affinity-regulating kinase 3 (Homo sapiens) (UniProt P27448); test: Inhibition of human recombinant MARK3 at 15 nM in presence of ATP by radiometric assay relative to control
[11] = molecular target: Casein kinase I isoform gamma-3 (Homo sapiens) (UniProt Q9Y6M4); test: Inhibition of human recombinant CK1g3 at 15 nM related to control ULK1
Sequence of Casein kinase I isoform gamma-3 (Homo sapiens) (Q9Y6M4 whole entry, looked up, canonical isoform): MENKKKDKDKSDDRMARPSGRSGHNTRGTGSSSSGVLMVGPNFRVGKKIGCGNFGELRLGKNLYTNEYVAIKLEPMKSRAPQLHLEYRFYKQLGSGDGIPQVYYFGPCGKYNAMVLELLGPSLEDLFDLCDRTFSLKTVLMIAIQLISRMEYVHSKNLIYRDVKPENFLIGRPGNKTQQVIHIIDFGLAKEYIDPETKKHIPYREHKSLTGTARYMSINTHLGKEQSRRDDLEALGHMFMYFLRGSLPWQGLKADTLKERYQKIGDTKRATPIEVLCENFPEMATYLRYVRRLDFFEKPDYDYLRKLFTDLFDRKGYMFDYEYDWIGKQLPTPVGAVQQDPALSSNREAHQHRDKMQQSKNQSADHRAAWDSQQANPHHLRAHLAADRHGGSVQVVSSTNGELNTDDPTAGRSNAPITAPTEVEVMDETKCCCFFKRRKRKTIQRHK

Sequence of MAP/microtubule affinity-regulating kinase 3 (Homo sapiens) (P27448 whole entry, looked up, canonical isoform): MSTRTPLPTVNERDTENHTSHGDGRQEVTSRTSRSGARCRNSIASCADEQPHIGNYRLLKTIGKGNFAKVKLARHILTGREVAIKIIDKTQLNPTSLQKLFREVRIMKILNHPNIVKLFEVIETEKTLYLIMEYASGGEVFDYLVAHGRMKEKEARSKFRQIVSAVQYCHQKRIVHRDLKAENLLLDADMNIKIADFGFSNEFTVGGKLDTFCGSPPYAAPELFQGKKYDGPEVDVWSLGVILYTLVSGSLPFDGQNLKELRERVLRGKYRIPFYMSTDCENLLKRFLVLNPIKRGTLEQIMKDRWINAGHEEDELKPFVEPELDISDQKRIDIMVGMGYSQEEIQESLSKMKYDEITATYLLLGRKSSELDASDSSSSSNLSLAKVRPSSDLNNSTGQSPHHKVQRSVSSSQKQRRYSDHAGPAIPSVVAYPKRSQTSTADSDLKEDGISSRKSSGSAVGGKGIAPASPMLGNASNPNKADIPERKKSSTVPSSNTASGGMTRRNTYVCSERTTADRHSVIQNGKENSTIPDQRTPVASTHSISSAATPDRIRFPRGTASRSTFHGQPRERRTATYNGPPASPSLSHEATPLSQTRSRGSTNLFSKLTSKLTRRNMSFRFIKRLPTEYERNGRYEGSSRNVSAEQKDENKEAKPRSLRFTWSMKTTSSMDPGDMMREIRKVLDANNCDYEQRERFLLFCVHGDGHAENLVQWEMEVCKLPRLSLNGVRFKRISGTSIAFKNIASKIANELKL
Sequence of Serine/threonine-protein kinase Nek6 (Homo sapiens) (Q9HC98 whole entry): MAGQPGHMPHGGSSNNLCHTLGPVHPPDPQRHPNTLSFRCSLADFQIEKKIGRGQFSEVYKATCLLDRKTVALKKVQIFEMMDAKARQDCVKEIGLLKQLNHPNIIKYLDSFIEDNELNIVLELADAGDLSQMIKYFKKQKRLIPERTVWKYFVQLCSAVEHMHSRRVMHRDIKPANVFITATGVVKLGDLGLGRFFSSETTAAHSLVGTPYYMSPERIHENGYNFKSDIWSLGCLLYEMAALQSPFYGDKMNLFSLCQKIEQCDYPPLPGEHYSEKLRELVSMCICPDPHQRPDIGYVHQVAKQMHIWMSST
Sequence of Serine/threonine-protein kinase 33 (Homo sapiens) (Q9BYT3 whole entry, looked up): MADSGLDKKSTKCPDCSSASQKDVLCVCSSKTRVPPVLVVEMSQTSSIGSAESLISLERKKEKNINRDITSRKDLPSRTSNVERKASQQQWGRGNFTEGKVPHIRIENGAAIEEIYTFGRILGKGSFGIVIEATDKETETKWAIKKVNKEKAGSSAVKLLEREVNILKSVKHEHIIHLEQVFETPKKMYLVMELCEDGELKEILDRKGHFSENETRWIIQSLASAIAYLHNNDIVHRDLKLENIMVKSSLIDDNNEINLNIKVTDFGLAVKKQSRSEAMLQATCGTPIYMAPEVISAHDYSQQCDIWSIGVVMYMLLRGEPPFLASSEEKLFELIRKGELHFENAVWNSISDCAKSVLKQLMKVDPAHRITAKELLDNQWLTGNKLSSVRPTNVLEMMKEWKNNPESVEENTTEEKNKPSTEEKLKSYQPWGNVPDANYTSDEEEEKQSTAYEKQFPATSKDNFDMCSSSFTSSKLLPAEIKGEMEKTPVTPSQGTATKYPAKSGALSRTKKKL
Sequence of [Pyruvate dehydrogenase (acetyl-transferring)] kinase isozyme 4, mitochondrial (Homo sapiens) (Q16654 whole entry, looked up): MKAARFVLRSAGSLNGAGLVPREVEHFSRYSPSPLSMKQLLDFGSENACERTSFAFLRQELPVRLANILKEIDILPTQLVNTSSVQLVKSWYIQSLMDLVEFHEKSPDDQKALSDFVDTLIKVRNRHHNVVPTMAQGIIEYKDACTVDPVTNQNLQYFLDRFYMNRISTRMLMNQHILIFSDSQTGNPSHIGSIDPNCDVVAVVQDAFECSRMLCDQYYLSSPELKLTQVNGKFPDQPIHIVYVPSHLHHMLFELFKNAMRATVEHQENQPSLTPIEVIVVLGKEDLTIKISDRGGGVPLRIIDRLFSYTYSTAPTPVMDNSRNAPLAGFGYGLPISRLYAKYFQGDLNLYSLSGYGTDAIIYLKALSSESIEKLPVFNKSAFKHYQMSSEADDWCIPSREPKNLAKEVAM
Sequence of SRSF protein kinase 2 (Homo sapiens) (P78362 whole entry, looked up): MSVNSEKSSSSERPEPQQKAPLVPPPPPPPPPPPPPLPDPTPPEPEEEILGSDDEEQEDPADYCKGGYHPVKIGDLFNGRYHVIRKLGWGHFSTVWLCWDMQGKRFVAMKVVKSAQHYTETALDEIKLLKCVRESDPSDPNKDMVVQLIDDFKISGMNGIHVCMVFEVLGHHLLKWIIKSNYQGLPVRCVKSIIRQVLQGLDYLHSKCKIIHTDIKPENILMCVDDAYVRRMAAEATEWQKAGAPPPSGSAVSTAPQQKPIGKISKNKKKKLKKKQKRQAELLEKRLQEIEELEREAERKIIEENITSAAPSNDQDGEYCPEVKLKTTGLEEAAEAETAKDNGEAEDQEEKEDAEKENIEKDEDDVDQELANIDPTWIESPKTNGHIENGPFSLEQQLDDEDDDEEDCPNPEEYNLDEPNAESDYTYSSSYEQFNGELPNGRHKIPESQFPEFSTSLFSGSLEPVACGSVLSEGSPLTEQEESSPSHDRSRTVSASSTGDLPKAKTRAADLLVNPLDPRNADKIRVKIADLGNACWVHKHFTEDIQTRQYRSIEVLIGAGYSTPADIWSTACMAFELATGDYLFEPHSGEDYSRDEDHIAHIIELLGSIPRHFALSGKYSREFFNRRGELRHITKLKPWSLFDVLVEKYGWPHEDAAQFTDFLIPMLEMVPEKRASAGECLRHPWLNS
Sequence of Glycogen synthase kinase-3 alpha (Homo sapiens) (P49840 2-483 limits assumed): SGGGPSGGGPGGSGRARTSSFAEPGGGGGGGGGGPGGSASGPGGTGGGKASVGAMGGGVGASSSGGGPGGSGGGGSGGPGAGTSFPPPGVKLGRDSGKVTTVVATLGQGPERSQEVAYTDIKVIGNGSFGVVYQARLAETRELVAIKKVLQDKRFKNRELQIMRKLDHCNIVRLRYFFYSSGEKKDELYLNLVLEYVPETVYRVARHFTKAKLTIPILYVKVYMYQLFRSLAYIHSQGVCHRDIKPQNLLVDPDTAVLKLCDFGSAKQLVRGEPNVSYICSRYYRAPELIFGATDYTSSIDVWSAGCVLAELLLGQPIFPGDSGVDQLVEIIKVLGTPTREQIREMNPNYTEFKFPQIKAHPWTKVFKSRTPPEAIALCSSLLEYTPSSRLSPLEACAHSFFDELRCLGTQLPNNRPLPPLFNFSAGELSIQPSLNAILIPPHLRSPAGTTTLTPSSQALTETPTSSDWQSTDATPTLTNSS
Sequence of Mitogen-activated protein kinase kinase kinase 20 (Homo sapiens) (Q9NYL2 2-800 limits assumed): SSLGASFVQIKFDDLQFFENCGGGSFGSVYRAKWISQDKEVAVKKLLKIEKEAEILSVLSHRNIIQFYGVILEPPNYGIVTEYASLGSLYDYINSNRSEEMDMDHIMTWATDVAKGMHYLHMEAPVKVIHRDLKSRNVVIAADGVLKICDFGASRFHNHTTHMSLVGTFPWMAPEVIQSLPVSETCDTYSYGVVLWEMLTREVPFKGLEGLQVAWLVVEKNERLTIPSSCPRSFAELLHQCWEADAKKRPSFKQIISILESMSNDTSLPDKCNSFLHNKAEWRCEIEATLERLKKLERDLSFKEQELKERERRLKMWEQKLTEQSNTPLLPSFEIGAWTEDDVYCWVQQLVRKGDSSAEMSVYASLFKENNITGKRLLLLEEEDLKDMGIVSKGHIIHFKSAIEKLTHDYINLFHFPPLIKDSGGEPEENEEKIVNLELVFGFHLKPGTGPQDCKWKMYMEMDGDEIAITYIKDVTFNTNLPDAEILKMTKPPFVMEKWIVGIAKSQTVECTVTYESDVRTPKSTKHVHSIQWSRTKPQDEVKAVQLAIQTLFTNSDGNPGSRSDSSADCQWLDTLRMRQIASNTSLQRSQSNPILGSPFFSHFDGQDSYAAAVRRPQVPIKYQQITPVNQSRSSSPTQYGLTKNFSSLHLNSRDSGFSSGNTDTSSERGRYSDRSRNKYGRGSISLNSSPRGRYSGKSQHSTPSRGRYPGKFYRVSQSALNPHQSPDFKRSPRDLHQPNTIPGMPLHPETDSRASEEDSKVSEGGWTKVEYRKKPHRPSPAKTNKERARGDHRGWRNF
Sequence of Serine/threonine-protein kinase 25 (Homo sapiens) (O00506 whole entry, looked up): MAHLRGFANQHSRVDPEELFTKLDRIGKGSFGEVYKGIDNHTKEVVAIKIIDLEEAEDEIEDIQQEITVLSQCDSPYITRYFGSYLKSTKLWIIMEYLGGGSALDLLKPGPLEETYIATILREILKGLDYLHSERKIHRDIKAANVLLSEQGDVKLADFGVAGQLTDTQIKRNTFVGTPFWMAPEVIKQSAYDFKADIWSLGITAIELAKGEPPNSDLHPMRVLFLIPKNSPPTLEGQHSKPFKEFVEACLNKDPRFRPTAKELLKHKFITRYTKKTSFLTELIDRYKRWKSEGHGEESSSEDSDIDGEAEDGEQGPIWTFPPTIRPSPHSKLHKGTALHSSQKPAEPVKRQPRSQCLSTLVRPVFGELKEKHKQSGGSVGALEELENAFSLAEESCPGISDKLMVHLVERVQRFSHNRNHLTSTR

SMILES: O=C(N[C@@H](C1CC1)C(F)(F)F)c1cc(-c2cnn3cc(-c4ccc(F)cc4)cnc23)cs1
- fold change (FC) [1]: 0
- fold change (FC) [2]: 0
- fold change (FC) [3]: 0.01

SMILES: CNC(=O)c1ccccc1Oc1nc(Nc2cc(OC)c(OC)c(OC)c2)ncc1Br
- fold change (FC) [4]: 0.08
- fold change (FC) [5]: 0
- inhibition [6]: 1%
- fold change (FC) [7]: 0.05
- inhibition [8]: 12%
- inhibition [9]: 6%

SMILES: CC(C)[C@H](NC(=O)c1cc(-c2cnn3cc(-c4ccc(OCCN5CCCCC5)cc4)cnc23)cs1)C(F)(F)F
- inhibition [10]: 63%
- fold change (FC) [11]: 0.03
